# Earlier results in patent US6485765B1, “Lactational performance of dairy cattle” (Church & Dwight Co., Inc., priority 2000, dated 2002).
# Tested on: heat stressed dairy cows
# Conditions: per every 1% increase in K, potassium carbonate as source of dietary K
compound,measurement,value
O=C([O-])[O-].[K+].[K+] [potassium carbonate],increase of fat-corrected milk,8.9 lbs/day
